Patent US12404332B2, “Methods for diagnosing and treating cancers” (Research Development Foundation, priority 2020, dated 2025)
“Also recorded” adds a separate entry of the source.

Tests used:
Chk2 = Chk2 protein content by immunoblot in B16-F10 cells; type: cell-based, mouse; conditions: PD-L1^KO but not CTRL B16-F10 cells
ID8agg cells = test: Erlotinib plus olaparib in ID8agg cells (MTT); type: cell-based, mouse
Experimental: 1,000 ID8agg cells were plated per well in 96 well plates. Cells were treated with 1, 2, or 3 μM of erlotinib and 5 μM or olaparib.

γH2AX in ID8agg cells = test: γH2AX immunoblot (DNA damage) in ID8agg cells; type: cell-based, mouse
Experimental: (§1) Immunoblotting was performed as described (Clark et al., 2016; Gupta et al., 2016). Protein was measured by BCA (ThermoFisher). Cell Signaling antibodies were phospho-histone H2A.X (#9718), phospho-Chk1^Ser345 (#2348), phosph-Chk2^Thr68 (#2197), phospho-ATM^Ser1981 (#5883), phospho-ATR^Ser428 (#2853), total-Chk1 (#2360), total-chk2 (#2662), total-ATM (#2873), total-ATR (#13934), total-NBS1 (#14956), total-Rad50 (#3427), RAD51, vinculin (#13901), beta-actin (#12620), human-PD-L1 (#13684), mouse-PD-L1. Abcam antibodies were (ab3801) and (ab80276) and total-BRCA1 was R&D MAB22101. All were used as per manufacturer's recommendation.

PD-L1 = PD-L1 after DNA damaging agents; type: cell-based
γH2AX in RT4 cells = test: γH2AX immunoblot (DNA damage) in RT4 cells; type: cell-based, human
Experimental: as §1

[1] = system: RT4 human bladder cancer cells; test: In vitro viability (MTT) of CTRL versus PD-L1^KO RT4 cells; type: cell-based; conditions: for sensitivity of PD-L1^KO versus control RT4 cells to the agent: monotherapy
Experimental: (§2) Cells (1×10^3) were plated in 96 well plastic culture plates in respective medium and treated for 5 days with DDRi or 3 days with gemcitabine at indicated concentrations. Drug concentrations were carefully optimized in preliminary work not shown. Cell viability was by MTT (3-(4,5-dimethylthiazol-2-yl)-2,5-diphenyl tetrazolium bromide) at 5 mg/ml. Absorbance was measured at 540 nm. Results are presented as a mean+/−SEM of ≥6 replicates. Total cells and viability were confirmed using a Vi-Cell-XR (Beckman Coulter).

[2] = system: ID8agg murine ovarian cancer cells; test: In vitro viability (MTT) of CTRL versus PD-L1^KO ID8agg cells; type: cell-based, mouse; conditions: for sensitivity of PD-L1^KO versus control ID8agg cells to the agent: monotherapy
Experimental: as §2

[3] = system: CTRL or PD-L1^KO MB49 tumors; test: MB49 tumor growth in NSG mice; type: in vivo, mouse; conditions: PD-L1^KO but not control MB49 tumors
Experimental: (§3) NSG mice were challenged with MB49 (0.3×10^6 cells) subcutaneously on opposite flanks. Olaparib (daily 25 mg/kg, 4% DMSO) was injected intraperitoneally on days 3-11. 4T1 (0.5×10^6 cells) were injected into mammary fat pads of NSG mice with Matrigel (1:1, Corning). Rabusertib (LY2602618, 4% DMSO) was administered intraperitoneally on day 3 (10 mg/kg) and days 10 and 17 (1 mg/kg).

[4] = system: B16 murine melanoma cells; test: In vitro viability (MTT) of CTRL versus PD-L1^KO B16 cells; type: cell-based, mouse
Experimental: as §2

[5] = system: CTRL or PD-L1^KO B16 tumors; test: B16 tumor growth in wild type or RAG2^KO mice; type: in vivo, mouse
Experimental: B16 cells were injected subcutaneously on opposite flanks into BL6 (0.5×10^6 cells) or RAG2^KO mice (0.4×10^6). Olaparib was administered daily intraperitoneally (50 mg/kg, 4% DMSO) on days 3-13. Tumors were measured with Vernier calipers and volume calculated as (length×width^2)/2. Mice were sacrificed when tumors reached ˜1500 mm^3 or if distressed.

[6] = system: MB49 murine bladder cancer cells; test: In vitro viability (MTT) of CTRL versus PD-L1^KO MB49 cells; type: cell-based, mouse
Experimental: as §2

4T1 tumors = 4T1 tumors in mice treated with Chk1i ± αPD-L1; type: in vivo, mouse; conditions: wild type mice
Experimental: (§4) FIGS. 27A-H: Anti-PD-L1 antibodies mimic genetic PD-L1 depletion to impair tumor cell-intrinsic DDR signals and promote sensitivity to Chk1 inhibition in vitro and in vivo. Cell viability of FIG. 27A, CTRL and FIG. 27B, PD-L1^KORT4 cells treated with LY2603618 (Chk1 inhibitor) as shown plus IgG1 isotype or atezolizumab (atezo, 3 μg/ml) for 72 hours in vitro. Mean+SEM, n=6 replicates, ***, P<0.001, unpaired t-test. FIG. 27C, Immunoblot (IB) analysis of ATM, Chk2, γH2AX and vinculin (VINC) of RT4 cells treated in vitro with isotype, atezolizumab, Chk1i, or their combination. FIG. 27D, Viability of 4T1 cells as in panel A substituting anti-murine PD-L1 and isotype controls. FIG. 27E, IB of 4T1 as in panel FIG. 27C. FIG. 27F, Tumor curves of NSG mice (n=10 tumors/group) challenged with 4T1 tumor cells and treated with Chk1i±αPD-L1. FIG. 27G, Tumor curves and FIG. 27H, tumor weights in WT […] mice challenged and treated as in panel FIG. 27F. P values, two-way ANOVA.

[7] = system: TpN^61R derived CD274^+/+ or CD274^−/− melanoma tumors; test: Growth of de novo PD-L1 null versus replete melanoma in C57BL/6J mice; type: in vivo, mouse; conditions: C57BL/6J wild type mice
Source text: (§5) FIGS. 26A-H: De novo PD-L1^KO tumors phenocopy important aspects of genetic PD-L1 depletion in established tumors. FIG. 26A, Melanoma-free survival of melanocyte specific CD274^fl,fl TpN^61R (KO) versus littermate (WT) autochthonous mice under conditions shown. FIG. 26B, Validation of PD-L1 expression by immunoblot (IB) of melanoma cells derived from UV induced (4.5 Kj/m^2) WT (CD274^+/+) or melanocyte specific CD274^KO (CD274^−/−) mice±in vitro interferon (IFN)-γ treatment. Viability curves of CD274^+/+ versus CD274^−/− cells treated with the selective Chk1 inhibitors FIG. 26C, prexasertib […] or FIG. 26D, rabusertib (LY2603618) in vitro at indicated concentrations. FIG. 26E, IB analysis of PD-L1, ATM, Chk2, and γH2AX of vehicle or rabusertib-treated CD274^+/+ and CD274^−/− cell lines. FIGS. 26F-H, Tumor growth curves in WT C57BL/6J mice (n=10 tumors/group) challenged with UV induced TpN^61R derived CD274^+/+ or CD274^−/− melanoma cells and treated with rabusertib (Chk1i, LY2603618) on the indicated treatment schedule. P values, two-way ANOVA.

[8] = system: CTRL and PD-L1^KO RT4 cells; test: Viability of RT4 cells treated with Chk1 inhibitor plus atezolizumab; type: cell-based, human; conditions: in vitro, absence of immune cells
Experimental: as §4

[9] = system: 4T1 murine breast cancer cells; test: In vitro viability (MTT) of CTRL versus PD-L1^lo 4T1 cells; type: cell-based, mouse; conditions: listed as Chk1i
Experimental: as §2

[10] = system: UV induced TpN^61R derived CD274^+/+ or CD274^−/− melanoma cells; test: Viability of de novo Nras CD274^+/+ versus CD274^−/− melanoma cells; type: cell-based, mouse; conditions: in vitro
Source text: as §5

[11] = system: human MDA-MB-231 triple negative breast cancer cells; test: In vitro sensitivity of PD-L1^lo versus CTRL MDA-MB-231 cells; type: cell-based
[12] = system: CTRL or PD-L1^lo 4T1 tumors; test: 4T1 tumor growth in NSG mice; type: in vivo, mouse; conditions: PD-L1^lo but not control 4T1 tumors, NSG females
Experimental: as §3

Structure (SMILES): CO/C1=C\C(C)=C\[C@@H](C)[C@@H](O)[C@@H](C)C/C(C)=C/C=C/[C@H](OC)[C@@H]([C@@H](C)[C@@H](O)[C@H](C)[C@@]2(O)C[C@@H](O)[C@H](C)[C@@H](C(C)C)O2)OC1=O [Bafilomycin A1]
- Chk2 accumulation (Chk2): led to Chk2 accumulation

Structure (SMILES): C#Cc1cccc(Nc2ncnc3cc(OCCOC)c(OCCOC)cc23)c1 [erlotinib]
- olaparib activity in combination (ID8agg cells; FIG. 46A): Olaparib activity is seen with erlotinib
- PD-L1 depletion over time (ID8agg cells; previous western, 24 hours, but not at 48 hours): only depletes PD-L1 for short periods of time

Structure (SMILES): Nc1ccn([C@@H]2O[C@H](CO)[C@@H](O)C2(F)F)c(=O)n1 [gemcitabine]
- γH2AX following treatment, PD-L1^KO versus control cells (γH2AX in ID8agg cells): markedly elevated
- PD-L1 after DNA damaging agent (PD-L1): increased PD-L1
- γH2AX following treatment, PD-L1^KO versus control cells (γH2AX in RT4 cells): markedly elevated; also recorded: accumulated more γH2AX
- fold more sensitive to gemcitabine, PD-L1^KO versus control cells ([1]; RT4 cells): 2 fold
- sensitivity of PD-L1^KO versus control RT4 cells to the agent [1]: substantially lower viability
- fold more sensitive to gemcitabine, PD-L1^KO versus control cells ([2]; ID8agg cells): 29 fold

Structure (SMILES): O=C(c1cc(Cc2n[nH]c(=O)c3ccccc23)ccc1F)N1CCN(C(=O)C2CC2)CC1 [olaparib]
- tumor growth and weight after treatment [3]: robustly growth inhibited and weighed less
- cytotoxicity against PD-L1^KO versus control B16 cells [4]: Moderate differences
- limiting PD-L1^KO B16 tumors ([5]; RAG2^KO mice lacking adaptive immunity): ineffective
- control of PD-L1^KO versus control B16 growth ([5]; wild type mice): significantly more effective
- sensitivity of PD-L1^KO versus control RT4 cells to the agent [1]: Minimal effects
- sensitivity of PD-L1^KO versus control ID8agg cells to the agent [2]: Minimal effects
- sensitivity of PD-L1^KO versus control MB49 cells to the agent [6]: more sensitive

Structure (SMILES): Cc1cnc(NC(=O)Nc2cc(Br)c(C)cc2OC[C@@H]2CNCCO2)cn1 [rabusertib]
- 4T1 tumors in vivo (4T1 tumors): failed to benefit
- control of in vivo growth, PD-L1 null versus PD-L1 replete tumors [7]: controlled in vivo growth significantly better
- PD-L1 after DNA damaging agent (PD-L1): increased PD-L1
- viability of RT4 cells, single agent [8]: expected dose-response toxicity
- cytotoxicity against PD-L1^KO versus control B16 cells [4]: striking cytotoxicity
- sensitivity of PD-L1^lo versus control 4T1 cells to the agent [9]: significantly growth inhibited; also recorded: enhanced sensitivity
- cytotoxicity in PD-L1^KO versus control RT4 cells [1]: over 15 fold
- sensitivity of PD-L1^KO versus control RT4 cells to the agent [1]: striking cytotoxicity
- synthetic lethality in induced PD-L1^KO tumors [10]: exhibited synthetic lethality
- sensitivity of PD-L1^KO versus control ID8agg cells to the agent ([2]; listed as Chk1i): enhanced sensitivity
- sensitivity of PD-L1^lo versus CTRL MDA-MB-231 cells [11]: more sensitive
- tumor sensitivity to single agent treatment [12]: particularly sensitive
